Results reported in ChEMBL document CHEMBL1221354, “Synthesis of polyhydroxylated aromatics having amidation of piperazine nitrogen as HIV-1 integrase inhibitor” (Bioorg Med Chem Lett, 2010).

Molecular target: Human immunodeficiency virus type 1 integrase (Human immunodeficiency virus 1, UniProt Q7ZJM1)
Assay: Inhibition of HIV1 integrase strand transfer activity after 1 hr

Human immunodeficiency virus type 1 integrase, sequence (Q7ZJM1 whole entry): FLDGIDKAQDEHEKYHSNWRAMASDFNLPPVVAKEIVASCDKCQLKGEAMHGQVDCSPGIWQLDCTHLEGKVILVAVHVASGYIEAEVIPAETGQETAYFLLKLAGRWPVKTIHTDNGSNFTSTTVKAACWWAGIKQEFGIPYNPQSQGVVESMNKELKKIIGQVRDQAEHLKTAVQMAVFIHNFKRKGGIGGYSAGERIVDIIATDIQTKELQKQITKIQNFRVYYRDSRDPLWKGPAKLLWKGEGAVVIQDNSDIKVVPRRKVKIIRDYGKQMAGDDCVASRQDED

IC50	Structure (SMILES)
> 100 µM	O=C(NCCCN1CCN(C(=O)/C=C/c2ccccc2)CC1)c1ccc(O)c(O)c1
> 100 µM	O=C(NCCCN1CCN(C(=O)/C=C/c2ccccc2Cl)CC1)c1ccc(O)c(O)c1
19.3 µM	O=C(NCCCN1CCN(C(=O)/C=C/c2ccccc2Cl)CC1)c1cc(O)c(O)c(O)c1
12.8 µM	O=C(NCCCN1CCN(C(=O)/C=C/c2ccccc2)CC1)c1cc(O)c(O)c(O)c1
> 100 µM	Cc1ccc(/C=C/C(=O)N2CCN(CCCNC(=O)c3ccc(O)c(O)c3)CC2)cc1
17.5 µM	Cc1ccc(/C=C/C(=O)N2CCN(CCCNC(=O)c3cc(O)c(O)c(O)c3)CC2)cc1
> 100 µM	O=C(NCCCN1CCN(C(=O)/C=C/c2ccc(Cl)cc2)CC1)c1ccc(O)c(O)c1
15.4 µM	O=C(NCCCN1CCN(C(=O)/C=C/c2cccc(O)c2)CC1)c1cc(O)c(O)c(O)c1
> 100 µM	O=C(NCCCN1CCN(C(=O)/C=C/c2cccc(O)c2)CC1)c1ccc(O)c(O)c1
24.9 µM	O=C(NCCCN1CCN(C(=O)/C=C/c2ccc(Cl)cc2)CC1)c1cc(O)c(O)c(O)c1
31.3 µM	O=C(NCCCN1CCN(C(=O)/C=C/c2ccccc2[N+](=O)[O-])CC1)c1cc(O)c(O)c(O)c1
0.77 µM	O=C(O)C(=O)CC(=O)c1cc(OCc2ccccc2)cc(OCc2ccccc2)c1
